# Article PMC7327383, “The affinity and selectivity of α‐adrenoceptor antagonists, antidepressants, and antipsychotics for the human α1A, α1B, and α1D‐adrenoceptors” (Pharmacology Research & Perspectives, 2020)
# Read-outs that look alike come from different tables or passages of the source.
# How the values were obtained:
# [1] = target: T1, full-length human α1D-adrenoceptor (Homo sapiens, UniProt P25100); assay: [3H]prazosin whole-cell competition binding, CHO-α1D cells
# T1 sequence (P25100 1-572): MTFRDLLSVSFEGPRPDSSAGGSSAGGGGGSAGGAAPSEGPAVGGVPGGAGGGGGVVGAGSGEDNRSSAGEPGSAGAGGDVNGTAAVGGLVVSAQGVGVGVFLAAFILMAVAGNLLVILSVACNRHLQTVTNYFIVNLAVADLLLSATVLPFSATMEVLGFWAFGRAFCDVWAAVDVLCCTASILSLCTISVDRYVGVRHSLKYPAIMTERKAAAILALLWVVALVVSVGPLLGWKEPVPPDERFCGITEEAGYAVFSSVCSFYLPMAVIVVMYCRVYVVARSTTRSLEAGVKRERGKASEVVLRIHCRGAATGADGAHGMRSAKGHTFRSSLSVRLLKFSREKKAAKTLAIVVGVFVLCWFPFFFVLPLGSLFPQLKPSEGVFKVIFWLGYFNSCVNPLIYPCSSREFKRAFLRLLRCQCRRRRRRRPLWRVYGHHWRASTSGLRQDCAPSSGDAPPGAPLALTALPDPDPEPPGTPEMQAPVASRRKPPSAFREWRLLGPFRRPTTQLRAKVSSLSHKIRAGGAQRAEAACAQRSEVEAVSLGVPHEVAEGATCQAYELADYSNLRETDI
# [2] = target: T2, human α1A-adrenoceptor (Homo sapiens, UniProt P35348); assay: [3H]prazosin whole-cell competition binding, CHO-α1A cells
# T2 construct: CHO cells stably expressing either the full‐length human α1A, α1B, or α1D‐adrenoceptor
# T2 sequence (P35348 1-466): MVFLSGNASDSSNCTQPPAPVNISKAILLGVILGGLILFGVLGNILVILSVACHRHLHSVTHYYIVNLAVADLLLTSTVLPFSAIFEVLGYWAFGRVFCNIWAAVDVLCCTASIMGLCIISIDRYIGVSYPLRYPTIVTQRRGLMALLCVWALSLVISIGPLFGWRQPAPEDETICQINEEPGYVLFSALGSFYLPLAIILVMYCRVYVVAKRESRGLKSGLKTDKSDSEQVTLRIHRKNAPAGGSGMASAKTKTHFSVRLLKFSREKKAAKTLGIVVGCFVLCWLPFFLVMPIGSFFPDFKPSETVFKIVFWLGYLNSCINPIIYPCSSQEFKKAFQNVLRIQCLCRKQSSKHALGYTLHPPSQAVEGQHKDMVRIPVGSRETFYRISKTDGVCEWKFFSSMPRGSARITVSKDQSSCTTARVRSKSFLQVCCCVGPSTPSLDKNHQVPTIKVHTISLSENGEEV
# [3] = target: T3, human α1B-adrenoceptor (Homo sapiens, UniProt P35368); assay: [3H]prazosin whole-cell competition binding, CHO-α1B cells; details: for Selectivity ratio α1B vs α1D: ratio of KD values, higher α1B affinity, 1.0 under vs = none
# T3 construct: CHO cells stably expressing either the full‐length human α1A, α1B, or α1D‐adrenoceptor
# T3 sequence (P35368 1-520): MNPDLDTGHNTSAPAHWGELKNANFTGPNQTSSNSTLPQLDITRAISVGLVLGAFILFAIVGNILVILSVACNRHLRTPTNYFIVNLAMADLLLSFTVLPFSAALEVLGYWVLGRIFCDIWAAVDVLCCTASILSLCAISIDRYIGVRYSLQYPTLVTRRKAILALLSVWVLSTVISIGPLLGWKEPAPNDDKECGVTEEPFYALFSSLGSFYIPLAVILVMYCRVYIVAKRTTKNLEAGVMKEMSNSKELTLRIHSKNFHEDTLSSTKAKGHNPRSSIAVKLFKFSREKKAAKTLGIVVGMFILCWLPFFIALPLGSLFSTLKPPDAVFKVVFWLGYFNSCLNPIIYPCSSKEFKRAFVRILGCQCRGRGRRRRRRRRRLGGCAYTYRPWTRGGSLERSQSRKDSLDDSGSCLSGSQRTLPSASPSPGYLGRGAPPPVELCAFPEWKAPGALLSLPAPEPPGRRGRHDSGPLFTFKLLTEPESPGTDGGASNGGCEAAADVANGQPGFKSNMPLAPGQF
# [4] = ratio of KD values, higher α1D affinity (site 1 KD)
# [5] = ratio of KD values, higher α1A affinity, 1.0 under vs = none
# [6] = ratio of KD values, printed under α1A = higher α1A affinity, 1.0 under vs = none
# [7] = ratio, 1 = no selectivity for a subtype over another
# [8] = single-component inhibition curve, given as log KD (negative), mean ± SE mean, read-out: Log KD α1A (converted)
# [9] = single-component inhibition curve, given as log KD (negative), mean ± SE mean
# [10] = selectivity ratio, 1 = no selectivity for a given receptor subtype over another
# [11] = Log KD α1D, single-component inhibition curve, given as log KD (negative), mean ± SE mean
# [12] = single-component inhibition curve, given as log KD (negative), mean ± SE mean, read-out: Log KD α1B (converted)
# [13] = percentage of inhibition through first component, control
# [14] = two-component inhibition curve, proportion of site 1
# [15] = log KD from 3H-prazosin whole cell binding, CHO cells, mean ± s.e.mean
structure (smiles),measurement,setting,value
CCN1CCCC1CNC(=O)c1cc(S(N)(=O)=O)ccc1OC (centres unmarked) [Sulpiride],Kd,"[1]; Log KD α1D (apparent), app: top concentration inhibited most but not all specific binding, curve extrapolated",219000 ± 5380 nM
same,Selectivity ratio α1B vs α1D,[1]; [4],>4.6 fold
same,Selectivity ratio α1A vs α1D,[2]; [5],6.9 fold
same,Selectivity ratio α1A vs α1B,[2]; [6],>32 fold
same,selectivity α1A vs α1B,[2]; [7],>31
same,Kd,[2]; [8],31600 nM
same,selectivity α1B vs α1D,[3]; [7],>4.6
CC(C)OC(=O)c1cc2c(OCC(O)CNC(C)(C)C)cccc2[nH]1 (centres unmarked) [SDZ21009],Selectivity ratio α1B vs α1D,[1]; [4],>12 fold
same,Log KD α1D,[1]; [9],−5.09 ± 0.18
same,Selectivity ratio α1A vs α1D,[2]; [5],1.4 fold
same,Selectivity ratio α1A vs α1B,[2]; [6],>17 fold
same,Log KD α1A,[2]; [9],−5.24 ± 0.07
same,selectivities α1B vs α1D,[3]; [10],>12
same,Log IC50 α1B,"[3]; top concentration inhibited some but 50% or less of specific binding, printed as log IC50",Log IC50 > −4
CN(C)CCCN1c2ccccc2CCc2ccccc21 [Imipramine],Kd,[1]; [11],1290 nM
same,Selectivity ratio α1B vs α1D,[1]; [4],1.3 fold
same,Selectivity ratio α1A vs α1B,[2],51 fold
same,Selectivity ratio α1A vs α1D,[2],38 fold
same,Kd,[2]; [8],33.9 nM
same,selectivity α1B vs α1D,[3]; [7],1.3
same,Kd,[3]; [12],1740 nM
COc1cccc(OC)c1OCCNCC1CSc2ccccc2O1 (centres unmarked) [Benoxathian],Log KD α1D site 1,"[1]; high-affinity component of two-component curve, control, used for selectivity",−7.91 ± 0.10
same,Log KD α1D site 2,"[1]; low-affinity component of two-component curve, control",−5.62 ± 0.19
same,% site 1 α1D,[1]; [13],62.5 ± 3.4% Site 1
same,% site 1 α1D,[1]; [14],-7.91 ± 0.10 -5.62 ± 0.19 62.5 ± 3.4% site 1
same,Log KD α1A,[2]; [9],−9.08 ± 0.05
same,Log KD α1B,[3]; [9],−7.32 ± 0.03
N=C(CC(O)COc1ccccc1-c1ccccc1)N1CCCCC1 (centres unmarked) [AH11110A],Log KD α1D,[1]; [9],−4.98 ± 0.06
same,Selectivity ratio α1A vs α1D,[2]; [5],32 fold
same,Selectivity ratio α1A vs α1B,[2]; [6],6.8 fold
same,Log KD α1A,[2]; [9],−6.48 ± 0.03
same,Selectivity ratio α1B vs α1D,[3],4.7 fold
same,Log KD α1B,[3]; [9],−5.65 ± 0.09
CN1CCc2cccc(Cl)c2CC1 [SKF86466],Kd,[1],6920 nM
same,Selectivity ratio α1B vs α1D,[1],1.7 fold
same,Kd,[2],871 nM
same,Selectivity ratio α1A vs α1B,[2],13 fold
same,Selectivity ratio α1A vs α1D,[2],7.9 fold
same,selectivity α1A vs α1B,[2],13.5
same,Kd,[3],11700 nM
same,selectivity α1B vs α1D,[3],1.7
CC(C)(C)NCC(O)COc1cccc2[nH]c(=O)[nH]c12 (centres unmarked) [CGP 12177],Kd,"[1]; Log KD α1D, log KD from 3H-prazosin whole cell binding, CHO cells, mean ± s.e.mean",63100 nM
same,Kd,"[2]; log KD from 3H-prazosin whole cell binding, CHO cells, mean ± s.e.mean, read-out: Log KD α1A (converted)",7240 nM
same,selectivity α1A vs 1D,[2]; [7],8.7
same,selectivity α1A vs α1B,[2]; [7],>14
same,Log IC50 α1B,[3]; log IC50 bound,Log IC50>-4
same,selectivity α1B vs α1D,[3]; [7],>1.6
OCCN1CCN(CCC=C2c3ccccc3Sc3ccc(C(F)(F)F)cc32)CC1 [Flupenthixol],Kd,[1]; [11],110 nM
same,Selectivity ratio α1A vs α1D,[2]; [5],25 fold
same,Selectivity ratio α1A vs α1B,[2]; [6],7.6 fold
same,Kd,[2]; [8],4.47 nM
same,Selectivity ratio α1B vs α1D,[3],3.2 fold
same,Kd,[3]; [12],33.9 nM
CC(C)(Cc1c[nH]c2ccccc12)NCC(O)COc1ccccc1C#N (centres unmarked) [Bucindolol],Kd,[1]; [11],355 nM
same,Selectivity ratio α1B vs α1D,[1]; [4],1.0 fold
same,Selectivity ratio α1A vs α1D,[2]; [5],13 fold
same,Selectivity ratio α1A vs α1B,[2]; [6],13 fold
same,selectivity α1A vs 1D,[2]; [7],13.2
same,selectivity α1A vs α1B,[2]; [7],13
same,selectivities α1A vs α1B,[2]; [10],13
same,selectivities α1A vs α1D,[2]; [10],13
same,Kd,[2]; [8],26.9 nM
same,"α1A affinity, fold lower than that for the human β1 adrenoceptor",[2]; β1 affinity from ref 53,54 fold
same,"α1A affinity, fold lower than that for the β2 adrenoceptor","[2]; β2 affinity from refs 52, 53",263 fold
same,selectivity α1B vs α1D,[3]; [7],1.0
same,Kd,[3]; [12],347 nM
O=C(NC1CCN(CCc2c[nH]c3ccccc23)CC1)c1ccccc1 [Indoramin],Kd,[1]; [11],513 nM
same,α1A selectivity,[2]; for α1A over the α1B or α1D-adrenoceptors,40 fold
same,Selectivity ratio α1A vs α1D,[2]; [5],138 fold
same,Selectivity ratio α1A vs α1B,[2]; [6],41 fold
same,Kd,[2]; [8],3.72 nM
same,Selectivity ratio α1B vs α1D,[3],3.4 fold
same,Kd,[3]; [12],151 nM
"CC(C)(Cc1c[nH]c2ccc(Cl)cc12)NCCOc1ccccc1OCC1CC1.Cl [RS17053, N‐[2‐(2‐cyclopropylmethoxyphenoxy)ethyl]‐5‐chloro‐alpha, alpha‐dimethyl‐1H‐indole‐3‐ethanamine hydrochloride]",Kd,[1],145 nM
same,Selectivity ratio α1B vs α1D,[1]; [4],1.7 fold
same,Selectivity ratio α1A vs α1D,[2]; [5],31 fold
same,Selectivity ratio α1A vs α1B,[2]; [6],52 fold
same,Kd,[2]; [8],4.68 nM
same,selectivity α1B vs α1D,[3]; [7],1.7
same,Kd,[3]; [12],245 nM
COc1ccccc1N1CCN(CC2CN3C(=O)N(C)c4ccccc4C3=N2)CC1 (centres unmarked) [2-MPMDQ],% site 1 α1D,[1]; [14],64.0 ± 2.1%
same,Log KD α1A,[2]; [15],-9.06 ± 0.07
same,Log KD α1B,[3]; [15],-7.37 ± 0.04
O=C1Nc2ccccc2C2=NC(CN3CCN(c4ccccc4)CC3)CN12 (centres unmarked) [2‐PMDQ],% site 1 α1D,[1]; [13],57.6 ± 2.8% site 1
same,Log KD α1A,[2]; [9],−8.19 ± 0.09
same,Log KD α1B,[3]; [9],−6.95 ± 0.05
COc1ccccc1N1CCN(CCCNc2c(C)c(=O)n(C)c(=O)n2C)CC1 [5-methyl-urapidil],Log KD α1D,[1],-5.61 ± 0.07
same,Log KD α1A,[2],-8.23 ± 0.05
same,selectivity α1A vs 1D,[2],417
same,selectivity α1A vs α1B,[2],148
same,Log KD α1B,[3],-6.06 ± 0.04
same,selectivity α1B vs α1D,[3],2.8
CC(C)(C)NCC(O)COc1cccc2[nH]c(=O)[nH]c12 (centres unmarked) [CGP12177],Kd,[1]; [11],63100 nM
same,Selectivity ratio α1B vs α1D,[1]; [4],>1.6 fold
same,Selectivity ratio α1A vs α1D,[2]; [5],8.7 fold
same,Selectivity ratio α1A vs α1B,[2]; [6],>14 fold
same,Kd,[2]; [8],7240 nM
same,IC50,[3]; read-out: Log IC50 α1B (converted),> 100000 nM
